Measurements as given in BindingDB's records for doi:10.1021/ja050122x (Yale University, 2005).

target: Bcl-2-like protein 1 (Homo sapiens, UniProt Q07817); experiment: Fluorescence Polarization Assay; settings: pH 7.4; 25 °C
Experimental: Fluorescence polarization experiments were conducted on a Photon Technology International instrument using a 0.3 cm path length cuvette. Spectra were measured at 25 deg C using 10.0 nm slit widths. Excitation at 495 nm was used for the fluorescein-containing peptide Fl-Bak and the emission maximum at 535 nm was monitored. Polarization measurements were recorded upon titration of inhibitors at varying concentrations into a solution of Fl-Bak and Bcl-xL. Regression analysis was carried out using SigmaPlot 2001 (Systat Co.) ligand binding macro module. Experimental data were fitted to determine the IC50 values, which can be related to the known affinity of the 16-mer Bak peptide (Kd =120 nM) to acquire the inhibitory constant Ki.

Chain of Bcl-2-like protein 1 (Q07817 whole entry): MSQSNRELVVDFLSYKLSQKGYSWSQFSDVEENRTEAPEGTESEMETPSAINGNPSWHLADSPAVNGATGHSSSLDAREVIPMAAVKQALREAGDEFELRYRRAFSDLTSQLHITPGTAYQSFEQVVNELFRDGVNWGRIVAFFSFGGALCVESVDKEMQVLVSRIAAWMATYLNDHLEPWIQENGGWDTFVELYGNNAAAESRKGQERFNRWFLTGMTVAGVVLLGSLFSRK

| Structure (SMILES) | Ki |
| --- | --- |
| CC(C)Cc1cc(-c2ccc(-c3ccc(CCC(=O)O)cc3CC(C)C)cc2Cc2cccc3ccccc23)ccc1OCC(=O)O [terphenyl scaffold, 14] | 0.114 µM |
| CC(C)Cc1cc(-c2ccc(-c3ccc(CCC(=O)O)cc3CC(C)C)cc2C(C)C)ccc1OCC(=O)O [terphenyl scaffold, 15] | 2.09 µM |
| CC(C)Cc1cc(-c2ccc(-c3ccc(CCC(=O)O)cc3CC(C)C)cc2Cc2ccccc2)ccc1OCC(=O)O [terphenyl scaffold, 16] | 1.82 µM |
| CC(C)Cc1cc(-c2ccc(-c3ccc(CCC(=O)O)cc3CC(C)C)cc2Cc2ccc3ccccc3c2)ccc1OCC(=O)O [terphenyl scaffold, 17] | 2.5 µM |
| CC(C)Cc1cc(CCC(=O)O)ccc1-c1ccc(-c2ccc(OCC(=O)O)c(Cc3ccccc3)c2)c(Cc2ccccc2)c1 [terphenyl scaffold, 18] | 2.73 µM |
| CC(C)Cc1cc(CCC(=O)O)ccc1-c1ccc(-c2ccc(OCC(=O)O)c(Cc3cccc4ccccc34)c2)c(CC(C)C)c1 [terphenyl scaffold, 19] | 2.7 µM |
| Cc1cc(CCC(=O)O)ccc1-c1cc(C)c(-c2ccc(OCC(=O)O)c(Cc3ccccc3)c2)c(C)c1 [terphenyl scaffold, 20] | 2.34 µM |
| Cc1cc(CCC(=O)O)ccc1-c1cc(C)c(-c2ccc(OCC(=O)O)c(Cc3ccccc3)c2)c(CCC(=O)O)c1 [terphenyl scaffold, 21] | > 30 µM |
| COC(=O)CCc1ccc(-c2ccc(-c3ccc(OCC(=O)OC)cc3)cc2)cc1 [terphenyl scaffold, 22] | > 30 µM |
| CC(C)Cc1cc(-c2ccc(-c3ccc(CCCN)cc3CC(C)C)cc2C(C)C)ccc1OCCN [terphenyl scaffold, 24] | 13.6 µM |
| O=C(O)COc1ccc(-c2ccc(-c3ccccc3)cc2)cc1 [terphenyl scaffold, 30] | > 30 µM |

Next, values leading:

| Ki | Structure (SMILES) |
| --- | --- |
| 6.88 µM | CCc1cc(-c2ccc(OCC(=O)O)cc2C(C)C)ccc1-c1cccc(Cc2cccc3ccccc23)c1 |
| 18.2 µM | Cc1cccc(-c2ccc(-c3ccc(OCC(=O)O)cc3C)cc2C)c1 [terphenyl scaffold, 25] |
| 10.4 µM | Cc1cc(OCC(=O)O)ccc1-c1ccc(-c2cccc(C(C)C)c2)c(C)c1 [terphenyl scaffold, 26] |
| 4.82 µM | CC(C)Cc1cc(OCC(=O)O)ccc1-c1ccc(-c2cccc(C(C)C)c2)c(CC(C)C)c1 [terphenyl scaffold, 27] |
| 3.27 µM | CCc1cc(-c2ccc(OCC(=O)O)cc2C(C)C)ccc1-c1cccc(Cc2ccccc2)c1 [terphenyl scaffold, 28] |
